Drawing on ChEMBL document CHEMBL2401650, “Selective inhibition of human acetylcholinesterase by xanthine derivatives: in vitro inhibition and molecular modeling investigations” (Bioorg Med Chem Lett, 2013), this text covers IC50 for three compounds.

One test has as its target Acetylcholinesterase (Homo sapiens, UniProt P22303). The test can be described thus: Inhibition of human AChE using acetylthiocholine iodide as substrate treated 5 mins before substrate addition measured up to 4 mins by Ellman's method.
Another test concerns the target Cholinesterase (Homo sapiens, UniProt P06276).

Cholinesterase, sequence (P06276 whole entry): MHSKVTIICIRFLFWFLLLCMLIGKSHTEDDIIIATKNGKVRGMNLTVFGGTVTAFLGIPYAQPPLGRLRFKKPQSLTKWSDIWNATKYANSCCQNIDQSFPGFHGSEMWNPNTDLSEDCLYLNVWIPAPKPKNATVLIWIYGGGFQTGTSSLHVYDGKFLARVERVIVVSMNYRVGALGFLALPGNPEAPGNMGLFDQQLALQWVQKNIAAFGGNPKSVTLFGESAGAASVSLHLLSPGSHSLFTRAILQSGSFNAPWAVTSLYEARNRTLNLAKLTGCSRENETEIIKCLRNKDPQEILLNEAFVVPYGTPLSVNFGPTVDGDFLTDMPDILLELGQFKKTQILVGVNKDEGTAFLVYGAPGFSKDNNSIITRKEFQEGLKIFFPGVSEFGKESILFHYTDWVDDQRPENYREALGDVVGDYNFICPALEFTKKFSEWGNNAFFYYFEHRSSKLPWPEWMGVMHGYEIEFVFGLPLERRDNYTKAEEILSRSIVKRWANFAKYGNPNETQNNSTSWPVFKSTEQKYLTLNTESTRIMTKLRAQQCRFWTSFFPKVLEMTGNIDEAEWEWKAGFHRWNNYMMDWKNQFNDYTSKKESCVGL
Acetylcholinesterase, sequence (P22303 whole entry): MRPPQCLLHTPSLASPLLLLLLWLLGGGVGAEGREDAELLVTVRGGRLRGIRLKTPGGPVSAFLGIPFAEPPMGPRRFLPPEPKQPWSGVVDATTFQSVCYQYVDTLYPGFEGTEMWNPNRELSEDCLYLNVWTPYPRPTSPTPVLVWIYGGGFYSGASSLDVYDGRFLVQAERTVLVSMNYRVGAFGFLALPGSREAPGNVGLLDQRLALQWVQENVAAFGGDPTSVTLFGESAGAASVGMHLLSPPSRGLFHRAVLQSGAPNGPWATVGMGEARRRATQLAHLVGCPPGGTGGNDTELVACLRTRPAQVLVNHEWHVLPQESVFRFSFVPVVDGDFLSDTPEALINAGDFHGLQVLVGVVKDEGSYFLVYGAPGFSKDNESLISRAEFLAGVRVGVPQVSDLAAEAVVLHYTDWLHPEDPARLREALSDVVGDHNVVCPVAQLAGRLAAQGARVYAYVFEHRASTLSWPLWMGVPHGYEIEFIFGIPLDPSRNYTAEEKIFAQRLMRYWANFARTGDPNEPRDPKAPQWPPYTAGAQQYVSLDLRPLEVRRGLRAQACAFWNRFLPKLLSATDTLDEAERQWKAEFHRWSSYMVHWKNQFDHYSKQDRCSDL

For `CCCn1cnc2c1c(=O)n(CCCCC(C)=O)c(=O)n2C` [PROPENTOFYLLINE], the results for the 50% inhibitory concentration (IC50) against Acetylcholinesterase and at Cholinesterase were 6.4 µM and above 50 µM, respectively.
The like results for `O=c1[nH]c(=O)c2[nH]cnc2[nH]1` [XANTHINE] were, in that order, 9 µM and above 50 µM.
Turning to `CC(=O)CCCCn1c(=O)c2c(ncn2C)n(C)c1=O` [PENTOXIFYLLINE], the IC50 (commonly the concentration at which inhibition is half-maximal) was 6.6 µM at Acetylcholinesterase and above 50 µM against Cholinesterase.
